According to the NIST ThermoML archive (doi:10.1021/acs.jced.7b00381):

Conditions: Fluid (supercritical or subcritical phases), isochoric method

FC(F)(F)/C=C/C(F)(F)F [trans-1,1,1,4,4,4-hexafluoro-2-butene]
Conditions | mass density [kg/m3]
323.43 K, 579.7 kPa | 1212.1
333.44 K, 5332.4 kPa | 1210.9
333.46 K, 1305.2 kPa | 1180.7
343.44 K, 10088 kPa | 1209.8
343.45 K, 5602.3 kPa | 1179.6
353.44 K, 1232.2 kPa | 1093.7
353.44 K, 4087.2 kPa | 1128.3
353.46 K, 9911.4 kPa | 1178.4
363.43 K, 7766.9 kPa | 1127.2
363.44 K, 4495.7 kPa | 1092.6
363.45 K, 2343 kPa | 1061.2
373.43 K, 1203.4 kPa | 83.9
373.43 K, 1779.9 kPa | 991.3
373.44 K, 7789.6 kPa | 1091.5
373.46 K, 5302.7 kPa | 1060.2
383.41 K, 1661.4 kPa | 129.2
383.43 K, 2410.5 kPa | 940.3
383.44 K, 1263 kPa | 83.9
383.44 K, 4128.8 kPa | 990.3
383.46 K, 8290.7 kPa | 1059.2
393.42 K, 1764.3 kPa | 129.1
393.44 K, 1320.8 kPa | 83.8
393.44 K, 6524 kPa | 989.3
393.45 K, 2531 kPa | 848.7
393.45 K, 4410.6 kPa | 939.4
403.43 K, 1863.4 kPa | 128.9
403.43 K, 2784.5 kPa | 594.5
403.43 K, 3331.6 kPa | 794.2
403.44 K, 1377.2 kPa | 83.7
403.44 K, 2465.8 kPa | 220.8
403.44 K, 2774.4 kPa | 460.7
403.44 K, 2774.7 kPa | 402.7
403.44 K, 2776.5 kPa | 535.5
403.44 K, 4004.8 kPa | 847.9
403.44 K, 8946 kPa | 988.4
403.45 K, 2727.9 kPa | 325
403.45 K, 2855.7 kPa | 688.4
403.45 K, 3069.1 kPa | 755.5
403.45 K, 6453.8 kPa | 938.5
413.42 K, 1959.4 kPa | 128.8
413.42 K, 3461.5 kPa | 594
413.43 K, 3371.4 kPa | 535
413.43 K, 4600.2 kPa | 793.4
413.43 K, 5530.3 kPa | 847.1
413.44 K, 1432.9 kPa | 83.6
413.44 K, 2664.9 kPa | 220.6
413.44 K, 3213.6 kPa | 402.3
413.44 K, 3284.4 kPa | 460.2
413.44 K, 8521.8 kPa | 937.6
413.45 K, 3064.7 kPa | 324.7
413.45 K, 4177.9 kPa | 754.8
413.46 K, 3739.9 kPa | 687.7
423.42 K, 2053.6 kPa | 128.7
423.42 K, 3980.8 kPa | 534.4
423.42 K, 4173.8 kPa | 593.4
423.43 K, 1487.5 kPa | 83.5
423.43 K, 3786.7 kPa | 459.8
423.43 K, 5906.9 kPa | 792.7
423.44 K, 7088.7 kPa | 846.2
423.45 K, 2857.2 kPa | 220.3
423.45 K, 3387.7 kPa | 324.4
423.45 K, 3637.3 kPa | 402
423.45 K, 5329 kPa | 754
423.46 K, 4672.9 kPa | 687
433.42 K, 2146.1 kPa | 128.6
433.42 K, 4598 kPa | 533.9
433.42 K, 4900.8 kPa | 592.8
433.43 K, 1541.9 kPa | 83.4
433.43 K, 4284.4 kPa | 459.3
433.43 K, 4286.7 kPa | 459.3
433.43 K, 8666.9 kPa | 845.4
433.44 K, 3703.4 kPa | 324.1
433.44 K, 7237.5 kPa | 791.9
433.45 K, 3045.2 kPa | 220.1
433.45 K, 4055.4 kPa | 401.6
433.45 K, 5628.3 kPa | 686.4
433.45 K, 6506.9 kPa | 753.3
443.42 K, 1595.5 kPa | 83.4
443.42 K, 5218.7 kPa | 533.4
443.42 K, 5638.1 kPa | 592.3
443.43 K, 2237.3 kPa | 128.4
443.43 K, 4783.2 kPa | 458.9
443.44 K, 4469 kPa | 401.2
443.44 K, 7698.7 kPa | 752.6
443.44 K, 8584 kPa | 791.1
443.45 K, 3230.1 kPa | 219.9
443.45 K, 4013.8 kPa | 323.8
443.45 K, 6600.4 kPa | 685.7
453.42 K, 2327.6 kPa | 128.3
453.42 K, 5843.1 kPa | 532.9
453.42 K, 6380.9 kPa | 591.7
453.43 K, 1648.3 kPa | 83.3
453.44 K, 4319.3 kPa | 323.4
453.44 K, 5280.1 kPa | 458.5
453.44 K, 9941.5 kPa | 790.4
453.45 K, 3412.1 kPa | 219.7
453.46 K, 4880.1 kPa | 400.8
453.46 K, 7584.8 kPa | 685
453.46 K, 8905 kPa | 751.8
463.42 K, 1700 kPa | 83.2
463.42 K, 7127.1 kPa | 591.1
463.44 K, 2415.5 kPa | 128.2
463.44 K, 6468.5 kPa | 532.4
463.45 K, 5285.9 kPa | 400.4
463.45 K, 10115 kPa | 751.1
463.46 K, 3590.1 kPa | 219.5
463.46 K, 4621.8 kPa | 323.1
463.46 K, 5775.9 kPa | 458
463.47 K, 8574.6 kPa | 684.4
473.43 K, 7093.2 kPa | 531.9
473.43 K, 7877 kPa | 590.5
473.44 K, 1751.3 kPa | 83.1
473.45 K, 3766 kPa | 219.3
473.45 K, 4919.9 kPa | 322.8
473.45 K, 5690.2 kPa | 400
473.45 K, 6269.7 kPa | 457.6
473.46 K, 2503.4 kPa | 128.1
473.46 K, 9568.9 kPa | 683.7
483.43 K, 7718.7 kPa | 531.4
483.44 K, 6093 kPa | 399.6
483.44 K, 6761.7 kPa | 457.1
483.44 K, 8628.9 kPa | 590
483.45 K, 1803.6 kPa | 83
483.45 K, 5216.5 kPa | 322.5
483.46 K, 2590.8 kPa | 128
483.46 K, 3941.1 kPa | 219.1
493.42 K, 8344.4 kPa | 530.8
493.43 K, 2677.3 kPa | 127.8
493.44 K, 9378.9 kPa | 589.4
493.45 K, 1854.7 kPa | 83
493.46 K, 5509.7 kPa | 322.2
493.46 K, 6493.6 kPa | 399.3
493.46 K, 7253 kPa | 456.7
493.47 K, 4117.6 kPa | 218.9
503.44 K, 2763.1 kPa | 127.7
503.44 K, 8968.2 kPa | 530.3
503.45 K, 1906.1 kPa | 82.9
503.45 K, 7742.3 kPa | 456.3
503.45 K, 10130 kPa | 588.8
503.46 K, 6891.7 kPa | 398.9
503.47 K, 4290.5 kPa | 218.7
503.47 K, 5802.6 kPa | 321.9
513.42 K, 2848.4 kPa | 127.6
513.42 K, 8228 kPa | 455.8
513.43 K, 9591.2 kPa | 529.8
513.44 K, 1956.7 kPa | 82.8
513.46 K, 4460.3 kPa | 218.4
513.46 K, 7287.8 kPa | 398.5
513.47 K, 6092.7 kPa | 321.6
523.41 K, 2933.2 kPa | 127.5
523.41 K, 8713.2 kPa | 455.4
523.44 K, 6379.8 kPa | 321.3
523.44 K, 10213 kPa | 529.3
523.45 K, 2008.3 kPa | 82.7
523.45 K, 7680.8 kPa | 398.1
523.46 K, 4629.7 kPa | 218.2
